Two molecules from ChEMBL document CHEMBL3352360, “Two new spirooxindole alkaloids from rhizosphere strain Streptomyces sp. xzqh-9” (Bioorg Med Chem Lett, 2014) can be followed below.

Active and inactive are the calls of the source. No cut-off for these calls is given here. Bounds are passed on as bounds.

Data set [1] is described as follows: Retention factor of the compound on TLC over silica gel. It counts as physicochemical.
The test system of data set [2] is A549. The data set is described as follows: Antiproliferative activity against human A549 cells assessed as inhibition of cell proliferation at 10 to 100 uM. It counts as functional.
In data set [3] the test system is BaF3. The data set is described as follows: Inhibition of Bcr-Abl (unknown origin) expressed in BaF3 cells at 30 uM. Conditions: Homo sapiens. It counts as cell-based.
A short description of data set [4]: Antiproliferative activity against human BGC823 cells assessed as inhibition of cell proliferation at 10 to 100 uM. It counts as functional, BGC-823.
The subject of data set [5] is HepG2. Kind of data set: Antiproliferative activity against human HepG2 cells assessed as inhibition of cell proliferation at 10 to 100 uM. It counts as functional.
For data set [6], the system named is MCF7. Kind of data set: Antiproliferative activity against human MCF7 cells assessed as inhibition of cell proliferation at 10 to 100 uM. Type of data set: functional.
The target in data set [7] is L-lactate dehydrogenase (Homo sapiens) (UniProt V9HWB9). The data set is described as follows: Inhibition of LDH (unknown origin) at 10 uM by biochemical assay.

The inhibition is how much of the control response was suppressed. Molecule `CC1=C(O)C(=O)C2=C(CCC2)[C@]12C(=O)N(C)c1ccccc12` had a Rf in data set [1] of 0.67. Also, the “inhibition (INH)” value in data set [2], in data set [4], in data set [5] and in data set [6] was below 10% each time. Also, in data set [3], the inhibition was found to be 15%. Besides, in data set [7], the inhibition entry was “inactive”.
`C[C@@H]1[C@@H](O)C(=O)C2=C(CCC2)[C@]12C(=O)N(C)c1ccccc12` showed a Rf in data set [1] of 0.8. Moreover, the “inhibition (INH)” value in data set [2], in data set [4], in data set [5] and in data set [6] was below 10% in each case. For the same molecule, the inhibition entry in data set [3] and in data set [7] was “inactive” each time.
